For series [1] the following is noted: cited from earlier work; for Formation of metabolites in the body: in vivo.
Another series deals with bacteria cells. The series can be described thus: Dark toxicity towards bacteria cells. Type of series: cell-based. As to conditions: 10 μM, no light.

Like-named read-outs stand apart in the source and are kept apart here.

Here are results for 2 compounds from patent US8815931B2, “Oral formulations for tetrapyrrole derivatives” (Biolitec Pharma Marketing Ltd, priority 2009, dated 2014).

Regarding `Oc1cccc(-c2c3nc(c(-c4cccc(O)c4)c4ccc([nH]4)c(-c4cccc(O)c4)c4nc(c(-c5cccc(O)c5)c5ccc2[nH]5)CC4)C=C3)c1` [mTHPC, m-tetrahydroxyphenylchlorin], the “Formation of metabolites in the body” value in series [1] is “does not form metabolites”; in series [1] (listed as Temoporfin), “no known enzyme system in the mammalian body which can metabolize Temoporfin”. The “Effect of lipoprotein levels and cholesterol metabolism on pharmacokinetics in plasma” value in series [1] (plasma) is on record as “neither lipoprotein levels nor cholesterol metabolism affects the pharmacokinetics”.

As to `CCCCCCc1c2nc(c(-c3ccc(C(=O)O)cc3)c3ccc([nH]3)c(-c3ccc(C(=O)O)cc3)c3nc(c(CCCCCC)c4ccc1[nH]4)C(O)C3O)C=C2` (stereo not shown) [BLC 6066, 2,3-Dihydro-2,3-dihydroxy-15,20-dihexyl-5,10-bis(4-carboxy-phenyl)porphyrin], the “Dark toxicity towards bacteria cells” value in the series with bacteria cells was “strong dark toxicity”.
